Patent US20260262643A1, “HERBICIDAL BENZOXAZINES” (FMC CORPORATION, priority 2022, published 2026)

Experiments:
green foxtail [1] = test: Test C postemergence; format: in vivo, Setaria viridis; details: postemergence, 10 days
In short: (§1)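 Test material, in non-phytotoxic solvent with surfactant, was sprayed on the soil directly after seeding (preemergence) or on young plants of 2–10 cm with one to two leaves (postemergence). Greenhouse, 10 days; 0–100 visual control scale.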

ryegrass, Italian [2] = test: Test C preemergence; format: in vivo, Lolium multiflorum; details: preemergence, 0 to 100 scale (0 no effect, 100 complete control)
In short: as §1

ducksalad = test: Test D flooded paddy test; format: in vivo, Heteranthera limosa; details: 250 g ai/ha, applied to paddy water, visual rating after 13 to 14 days, scale 0 to 100 (0 no effect, 100 complete control)
In short: (§2)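 Seedlings reached the 2-leaf stage, then pots were flooded to 3 cm over the soil surface. Compound was applied into the water, depth was maintained, and plants stayed in the greenhouse 13 to 14 days before visual scoring (0–100) relative to controls.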

kochia [3] = test: Test C postemergence; format: in vivo, Bassia scoparia; details: postemergence, 10 days
In short: as §1

barnyardgrass [4] = test: Test D flooded paddy test; format: in vivo, Echinochloa crus-galli; details: 250 g ai/ha, applied to paddy water, visual rating after 13 to 14 days, scale 0 to 100 (0 no effect, 100 complete control)
In short: as §2

corn [5] = test: Test C postemergence; format: in vivo, Zea mays; details: postemergence, 10 days
In short: as §1

soybean [6] = test: Test C postemergence; format: in vivo, Glycine max; details: postemergence, 10 days
In short: as §1

corn [7] = test: Test C preemergence; format: in vivo, Zea mays; details: preemergence, 0 to 100 scale (0 no effect, 100 complete control)
In short: as §1

barnyardgrass [8] = test: Test C preemergence; format: in vivo, Echinochloa crusgalli; details: preemergence, 0 to 100 scale (0 no effect, 100 complete control)
In short: as §1

barnyardgrass [9] = test: Test C postemergence; format: in vivo, Echinochloa crusgalli; details: postemergence, 10 days
In short: as §1

ragweed [10] = test: Test C postemergence; format: in vivo, Ambrosia artemisiifolia; details: postemergence, 10 days
In short: as §1

wheat [11] = test: Test C preemergence; format: in vivo, Triticum aestivum; details: preemergence, 0 to 100 scale (0 no effect, 100 complete control)
In short: as §1

blackgrass [12] = test: Test C preemergence; format: in vivo, Alopecurus myosuroides; details: preemergence, 0 to 100 scale (0 no effect, 100 complete control)
In short: as §1

blackgrass [13] = test: Test C postemergence; format: in vivo, Alopecurus myosuroides; details: postemergence, 10 days
In short: as §1

kochia [14] = test: Test C preemergence; format: in vivo, Bassia scoparia; details: preemergence, 0 to 100 scale (0 no effect, 100 complete control)
In short: as §1

wheat [15] = test: Test C postemergence; format: in vivo, Triticum aestivum; details: postemergence, 10 days
In short: as §1

pigweed, palmer [16] = test: Test C postemergence; format: in vivo, Amaranthus palmeri; details: postemergence, 10 days
In short: as §1

green foxtail [17] = test: Test C preemergence; format: in vivo, Setaria viridis; details: preemergence, 0 to 100 scale (0 no effect, 100 complete control)
In short: as §1

horseweed = test: Test C postemergence; format: in vivo, Erigeron canadensis; details: postemergence, 10 days
In short: as §1

pigweed, palmer [18] = test: Test C preemergence; format: in vivo, Amaranthus palmeri; details: preemergence, 0 to 100 scale (0 no effect, 100 complete control)
In short: as §1

ryegrass, Italian [19] = test: Test C postemergence; format: in vivo, Lolium multiflorum; details: postemergence, 10 days
In short: as §1

galium = test: Test C postemergence; format: in vivo, Galium aparine; details: postemergence, 10 days
In short: as §1

soybean [20] = test: Test C preemergence; format: in vivo, Glycine max; details: preemergence, 0 to 100 scale (0 no effect, 100 complete control)
In short: as §1

oat, wild [21] = test: Test C preemergence; format: in vivo, Avena fatua; details: preemergence, 0 to 100 scale (0 no effect, 100 complete control)
In short: as §1

ragweed [22] = test: Test C preemergence; format: in vivo, Ambrosia artemisiifolia; details: preemergence, 0 to 100 scale (0 no effect, 100 complete control)
In short: as §1

rice = test: Test D flooded paddy test; format: in vivo, Oryza sativa; details: 250 g ai/ha, applied to paddy water, visual rating after 13 to 14 days, scale 0 to 100 (0 no effect, 100 complete control)
In short: as §2

oat, wild [23] = test: Test C postemergence; format: in vivo, Avena fatua; details: postemergence, 10 days
In short: as §1

sedge, umbrella = test: Test D flooded paddy test; format: in vivo, Cyperus difformis; details: 250 g ai/ha, applied to paddy water, visual rating after 13 to 14 days, scale 0 to 100 (0 no effect, 100 complete control)
In short: as §2

[24] = 125 g ai/ha, 0 to 100 scale, 0 no effect, 100 complete control
[25] = 500 g ai/ha, 0 to 100 scale (0 no effect, 100 complete control)

Cc1ccc(-n2cnc(C(C)C)n2)cc1C(=O)N1CC(C(F)(F)F)Oc2c(Cl)cccc21 (single isomer, unassigned) [Compound 292]
10: Plant response rating, Corn (corn [5]; [24]) | Corn plant response rating (corn [7]; 500 g ai/ha) | Corn plant response rating (corn [7]; Test C, 125 g ai/ha) | Plant response rating, Barnyardgrass (barnyardgrass [9]; [24])
50: Wheat plant response rating (wheat [11]; 500 g ai/ha) | Plant response rating, Oat, Wild (oat, wild [23]; [25])
40: Plant response rating, Foxtail, Green (green foxtail [1]; [25]) | Soybean plant response rating (soybean [20]; Test C, 125 g ai/ha) | Oat, Wild plant response rating (oat, wild [21]; Test C, 125 g ai/ha)
20: Plant response rating, Corn (corn [5]; [25]) | Barnyardgrass plant response rating (barnyardgrass [8]; Test C, 125 g ai/ha) | Plant response rating, Barnyardgrass (barnyardgrass [9]; [25]) | Plant response rating, Ragweed (ragweed [10]; [25]) | Wheat plant response rating (wheat [11]; Test C, 125 g ai/ha) | Plant response rating, Blackgrass (blackgrass [13]; [25]) | Plant response rating, Wheat (wheat [15]; [24]) | Plant response rating, Horseweed (horseweed; [24]) | Ragweed plant response rating (ragweed [22]; 500 g ai/ha) | Ragweed plant response rating (ragweed [22]; Test C, 125 g ai/ha)
0: Plant response rating, Ducksalad (Flood) (ducksalad) | Plant response rating, Barnyardgrass (Flood) (barnyardgrass [4]) | Plant response rating, Blackgrass (blackgrass [13]; [24]) | Plant response rating, Ryegrass, Italian (ryegrass, Italian [19]; [24]) | Plant response rating, Rice (Flood) (rice) | Plant response rating, Oat, Wild (oat, wild [23]; [24]) | Plant response rating, Sedge, Umbrella (Flood) (sedge, umbrella)
30: Plant response rating, Foxtail, Green (green foxtail [1]; [24]) | Plant response rating, Ragweed (ragweed [10]; [24]) | Blackgrass plant response rating (blackgrass [12]; Test C, 125 g ai/ha) | Kochia plant response rating (kochia [14]; Test C, 125 g ai/ha) | Plant response rating, Wheat (wheat [15]; [25])
80: Plant response rating, Pigweed, Palmer (pigweed, palmer [16]; [24]) | Plant response rating, Pigweed, Palmer (pigweed, palmer [16]; [25]) | Plant response rating, Galium (galium; [25]) | Oat, Wild plant response rating (oat, wild [21]; 500 g ai/ha)
90: Ryegrass, Italian plant response rating (ryegrass, Italian [2]; Test C, 125 g ai/ha) | Plant response rating, Kochia (kochia [3]; [25]) | Barnyardgrass plant response rating (barnyardgrass [8]; 500 g ai/ha) | Blackgrass plant response rating (blackgrass [12]; 500 g ai/ha) | Foxtail, Green plant response rating (green foxtail [17]; Test C, 125 g ai/ha) | Soybean plant response rating (soybean [20]; 500 g ai/ha)
100: Ryegrass, Italian plant response rating (ryegrass, Italian [2]; 500 g ai/ha) | Plant response rating, Soybean (soybean [6]; [24]) | Plant response rating, Soybean (soybean [6]; [25]) | Foxtail, Green plant response rating (green foxtail [17]; 500 g ai/ha) | Pigweed, Palmer plant response rating (pigweed, palmer [18]; 500 g ai/ha) | Pigweed, Palmer plant response rating (pigweed, palmer [18]; Test C, 125 g ai/ha)
70: Plant response rating, Kochia (kochia [3]; [24]) | Plant response rating, Galium (galium; [24])
60: Kochia plant response rating (kochia [14]; 500 g ai/ha) | Plant response rating, Horseweed (horseweed; [25]) | Plant response rating, Ryegrass, Italian (ryegrass, Italian [19]; [25])
